Measured values from PubChem BioAssay (NCI).
≈ marks a conversion by molar mass, not a printed value.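 Tested at 5 concentrations; 48 h exposure; 96-well plates; endpoints linearly interpolated, else capped at highest concentration. GI50 marks 50% less growth. Definition used: TGI = concentration required for complete inhibition of growth.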

Tests used:
Test in all cases: NCI tumour cell line growth inhibition, 48 h
[1] = system: DU-145 prostate
[2] = system: SR leukemia
[3] = system: CAKI-1 renal
[4] = system: MDA-MB-231 breast
[5] = system: NCI/ADR-RES ovarian
[6] = system: NCI-H226 lung
[7] = system: DMS 114 small cell lung
[8] = system: DLD-1 colon
[9] = system: P388 leukemia
[10] = system: M19-MEL melanoma
[11] = system: XF 498 CNS
[12] = system: P388/ADR leukemia
[13] = system: SNB-78 CNS
[14] = system: SN12K1 renal
[15] = system: HOP-18 NSCLC

SMILES	TGI [1]	TGI [2]	TGI [3]	TGI [4]	TGI [5]	TGI [6] [µM]	TGI [7] [µM]	TGI [8] [µM]	further results
COC(=O)C(Cc1cn(C(C)n2cc(CC(NC(C)=O)C(=O)OC)c3ccccc32)c2ccccc12)NC(C)=O (stereo not given)	> 100 µM	> 100 µM	> 100 µM	> 100 µM					
O=c1oc2ccccc2c(O)c1Cc1ccc(Cc2c(O)c3ccccc3oc2=O)cc1	> 100 µM	> 100 µM	> 100 µM	> 100 µM	> 100 µM	> 100			
O=C(O)c1nc2ccc(C(F)(F)F)cc2[nH]c1=O	> 100 µM	> 100 µM	> 100 µM	> 100 µM	> 100 µM	> 100			
COC(=O)CC(=O)OSc1ccccc1		42 µM				64	25.6	48	
CCOC(=O)c1csc(NC(=O)C(C)N2CCCC2)n1 (stereo not given)	> 100 µM		> 100 µM	> 100 µM					
CSCC[C@@H](NC(=O)[C@H](CC(C)C)NC(=O)C(Cc1cnc[nH]1)NC(=O)CNC(=O)[C@@H](NC(=O)[C@H](C)NC(=O)[C@H](Cc1c[nH]c2ccccc12)NC(=O)[C@H](CCC(N)=O)NC(=O)[C@@H](N)CC(N)=O)C(C)C)C(N)=O (stereo not given in full)					> 100 µM	> 100	> 100	> 100	TGI [9]: > 100 µM; TGI [10]: > 100 µM; TGI [11]: > 100 µM; TGI [12]: > 100 µM; TGI [13]: > 100 µM; TGI [14]: > 100 µM; TGI [15]: > 100 µM
CN(C)CCNC(=O)c1cccc2c1Nc1ccccc1S2					32.6 µM	16.8	20	29.7	TGI [9]: 6.23 µM; TGI [10]: 29.6 µM; TGI [11]: 25.3 µM; TGI [12]: 9.51 µM; TGI [13]: 27.7 µM; TGI [14]: 20.7 µM; TGI [15]: 24.4 µM
O=C1NN(C2=NNC3(C(=O)N2)c2ccccc2-c2ccccc23)C(c2ccccc2)=N/C1=C/c1ccc(Cl)cc1	> 150 µg/mL	> 150 µg/mL	> 150 µg/mL	> 150 µg/mL	> 150 µg/mL				GI50 [1]: 89.1 µg/mL (≈ 164 µM); GI50 [5]: 53.2 µg/mL (≈ 97.7 µM); GI50 [2]: 62 µg/mL (≈ 114 µM); GI50 [3]: 74.4 µg/mL (≈ 136 µM); GI50 [4]: 47.9 µg/mL (≈ 87.8 µM)
